Consider eight compounds from patent US20220257597A1, “Methods of Administering Elagolix” (AbbVie Inc., priority 2021, published 2022).

Data set [1] in a line: Drug-drug interaction study: effect of multiple doses of elagolix sodium on pharmacokinetics of bupropion (CYP2B6 substrate) and OH-bupropion. The conditions noted are these: for t1/2: harmonic mean. Here is the method: Subjects: Twenty four (24) adult premenopausal women in generally good health participated in this study.
Elagolix 300 mg BID (as 300 mg immediate release tablets) was administered in the morning and evening on days 1 through 14 in period 2. […] No food was consumed for 2 hours prior to the evening doses of elagolix continuing through 2 hours after. The doses of elagolix were separated by approximately 12 hours.
Individual PK parameters (peak concentration [Cmax] and area under the concentration-time curve [AUC]) were estimated using noncompartmental methods.
Central value ratios (90% confidence intervals) for Cmax, AUC, and metabolite to parent ratios (MPRs) (day 11, period 2 vs. day 1, period 1) were calculated to assess the DDIs. Safety was evaluated through assessment of adverse events, vital signs, electrocardiogram, and clinical laboratory tests.
Adverse events (AEs) were monitored throughout the DDI study. Additional safety evaluations included monitoring of physical examinations, vital signs, electrocardiogram variables, and clinical laboratory values were assessed

Data set [2] is described as follows: Drug interaction studies: change in pharmacokinetics of co-administered drug in the presence of elagolix. Type of data set: in vivo, human. Here is the method:
Drug interaction studies were performed with elagolix and other drugs likely to be co-administered and with drugs commonly used as probes for pharmacokinetic interactions. Tables 8 and 9 summarize the pharmacokinetic effects when elagolix was co-administered with these drugs.

Data set [3] is described as follows: Drug-drug interaction study: effect of multiple doses of elagolix sodium on pharmacokinetics of omeprazole (CYP2C19 substrate) and its metabolites. The conditions noted are these: for M:P AUCinf Ratio, Relative Bioavailability Point Estimate / M:P AUCt Ratio, Relative Bioavailability Point Estimate: Day 11 vs. Day 1; for AUCinf / AUCt / Cmax: geometric mean; for RAUCinf = metabolite-to-omeprazole AUCinf ratio / RAUCt = metabolite-to-omeprazole AUCt ratio / Tmax: median; for M:P AUCinf Ratio, Central Value Reference / M:P AUCt Ratio, Central Value Reference: Study Day 1: omeprazole 40 mg; for M:P AUCinf Ratio, Central Value Test / M:P AUCt Ratio, Central Value Test: Study Day 11: elagolix 300 mg BID + omeprazole 40 mg. The protocol: Subjects: Twenty adult premenopausal female subjects were enrolled in the study.
Beginning on Day 3, subjects received elagolix 300 mg BID under fasting conditions every day until Day 10. […] Doses of elagolix were separated by approximately 12 hours.
Testing was performed for CYP2C19 variants including the *2 (r54244285), *3 (r54986893), *4 (r528399504), *8 (r541291556), *10 (r56413438) and *12 (r555640102) alleles.
Safety was evaluated during confinement and at each study visit through adverse event monitoring, vital signs measurements, physical examinations, and routine laboratory tests.

The nature of data set [4]: Drug interactions: effects of ORIAHNN on other drugs. The conditions noted are these: co-administration of ORIAHNN.
Data set [5] in a line: Drug interactions: effects of ORILISSA on other drugs. The conditions noted are these: co-administration of ORILISSA
Setting [6] is: bupropion 150 mg + elagolix 300 mg BID (Day 11, Period 2), mean.
Where [7] appears, read: bupropion 150 mg alone (Day 1, Period 1), mean.
[8] abbreviates: bupropion + elagolix (Day 11, Period 2), median.
[9] abbreviates: bupropion alone (Day 1, Period 1), median.
Where [10] appears, read: single 150 mg bupropion, elagolix 300 mg twice daily.
[11] abbreviates: ethinyl estradiol 35 mcg and triphasic norgestimate 0.18/0.215/0.25 mg once daily, elagolix 150 mg once daily, N 21.
Where [12] appears, read: Study Day 1, omeprazole 40 mg, harmonic mean.
[13] abbreviates: Study Day 11, omeprazole 40 mg + elagolix 300 mg BID.
Setting [14] is: single 40 mg omeprazole, elagolix 300 mg twice daily.
The mark [15] stands for this setting: norethindrone 0.35 mg once daily x 112 days, elagolix 150 mg once daily x 56 days, N 32.

Each structure is given as a SMILES string. Bounds are passed on as bounds.

`CC(NC(C)(C)CO)C(=O)c1cccc(Cl)c1` (centres unmarked) [OH-Bupropion]: in data set [1] (bupropion 150 mg + elagolix 300 mg BID (Day 11, Period 2)), the t1/2 is 20.5 h. In data set [1] (setting [6]), the AUCinf amounted to 17600 ng·h/mL, the AUCt is 17000 ng·h/mL and the Cmax was determined as 429 ng/mL. The Tmax in data set [1] (bupropion 150 mg + elagolix 300 mg BID (Day 11, Period 2), median, N = 24) came to 6.0 h. The compound further yielded a t1/2 in data set [1] (bupropion 150 mg alone (Day 1, Period 1)) of 24.7 h. For the same compound, in data set [1] (setting [7]), the AUCinf amounted to 16700 ng·h/mL, the AUCt was found to be 15700 ng·h/mL and the Cmax turned out to be 323 ng/mL. The Tmax in data set [1] (bupropion 150 mg alone (Day 1, Period 1), median, N = 24) is reported as 10.0 h. In data set [1] (setting [8]), the “Metabolite to Parent AUCinf Ratio” value stood at 15.9, the “Metabolite to Parent AUCt Ratio” value is listed as 15.9 and the “Metabolite to Parent Cmax Ratio” value turned out to be 3.92. In data set [1] (setting [9]), the “Metabolite to Parent AUCinf Ratio” value was 15.7, the “Metabolite to Parent AUCt Ratio” value came out at 15.4 and the “Metabolite to Parent Cmax Ratio” value was 3.61. In data set [1], the “Cmax upon co-administration with elagolix, in words” value was “increased”. In data set [1] (elagolix 300 mg BID), the “changes in metabolite to parent ratios (OH-bupropion/bupropion) of Cmax and AUC” value is not above 12%; the “increase in Cmax upon co-administration with elagolix” value is reported as 32%. Also, in data set [1] (setting [10]), the “AUCinf ratio, co-administered with elagolix vs bupropion alone” value is given as “about 1.063” and the “Cmax ratio, co-administered with elagolix vs bupropion alone” value is “about 1.317”.

In the case of `C#C[C@]1(O)CC[C@H]2[C@@H]3CCC4=CC(=NO)CC[C@@H]4[C@H]3CC[C@@]21CC` (mixture of isomers) [Norelgestromin], in data set [2] (setting [11]), the “Ratio (90% CI) AUC, co-administration with elagolix vs medication alone” value (“Ratio (90% CI) AUC, co-administration” below) is 0.85 and the “Ratio (90% CI) Cmax, co-administration with elagolix vs medication alone” value (“Ratio (90% CI) Cmax, co-administration” for short) is recorded as 0.87.

As to `COc1ccc2nc(S(=O)(=O)Cc3ncc(C)c(OC)c3C)[nH]c2c1` [omeprazole sulfone], in data set [3], the “M:P AUCinf Ratio, Relative Bioavailability Point Estimate” value is recorded as 1.246; the “M:P AUCt Ratio, Relative Bioavailability Point Estimate” value is given as 1.497; the “M:P AUCinf Ratio, Central Value Reference” value came out at 0.825; the “M:P AUCt Ratio, Central Value Reference” value was determined as 0.679. In data set [3], the “M:P AUCinf Ratio, Central Value Test” value was 1.028 and the “M:P AUCt Ratio, Central Value Test” value is listed as 1.017. Besides, in data set [3] (Study Day 1, omeprazole 40 mg), the AUCinf turned out to be 1400 ng·h/mL, the AUCt came out at 1240 ng·h/mL, the Cmax stood at 152 ng/mL and the “RAUCinf = metabolite-to-omeprazole AUCinf ratio” value was found to be 0.85. Further, in data set [3] (Study Day 1, omeprazole 40 mg), the “RAUCt = metabolite-to-omeprazole AUCt ratio” value is given as 0.76 and the Tmax stood at 3.5 h. Besides, the t1/2 in data set [3] (setting [12]) is 3.27 h. Further, in data set [3] (setting [13]), the AUCinf was determined as 3450 ng·h/mL, the AUCt stood at 3380 ng·h/mL, the Cmax is recorded as 411 ng/mL and the “RAUCinf = metabolite-to-omeprazole AUCinf ratio” value worked out at 0.99. In addition, in data set [3] (setting [13]), the “RAUCt = metabolite-to-omeprazole AUCt ratio” value worked out at 0.97 and the Tmax is 4.0 h. Also, the “Cmax and AUCinf values upon co-administration with elagolix, in words” value in data set [3] (co-administration with elagolix) is reported as “increased”. Further, in data set [3] (elagolix 300 mg BID dosing), the “increase in AUCinf” value stood at 2.5 fold, the “increase in Cmax” value stood at 2.7 fold and the “increase in M:P AUCinf ratio” value is on record as 25%. In data set [3] (extensive and intermediate metabolizers, elagolix co-administration), the “increase in exposures (AUCinf) in CYP2C19 EM and IM subjects” value was approximately 3 fold. Besides, in data set [3] (setting [14]), the “AUCinf ratio, co-administered with elagolix vs omeprazole alone” value was “about 2.55” and the “Cmax ratio, co-administered with elagolix vs omeprazole alone” value is “about 2.70”.

For `C#C[C@]1(O)CC[C@H]2[C@@H]3CCC4=CC(=O)CC[C@@H]4[C@H]3CC[C@@]21C` [Norethindrone], in data set [2] (setting [15]), the “Ratio (90% CI) AUC, co-administration” value was determined as 0.88 and the “Ratio (90% CI) Cmax, co-administration” value was 0.95.

Turning to `COc1ccc2nc([S+]([O-])Cc3ncc(CO)c(OC)c3C)[nH]c2c1` (centres unmarked) [5-hydroxyomeprazole], in data set [3], the “M:P AUCinf Ratio, Relative Bioavailability Point Estimate” value is 0.432; the “M:P AUCt Ratio, Relative Bioavailability Point Estimate” value is 0.412; the “M:P AUCinf Ratio, Central Value Reference” value came out at 0.458; the “M:P AUCt Ratio, Central Value Reference” value is reported as 0.471. Further, in data set [3], the “M:P AUCinf Ratio, Central Value Test” value is given as 0.198 and the “M:P AUCt Ratio, Central Value Test” value came to 0.194. In data set [3] (Study Day 1, omeprazole 40 mg), the AUCinf was 883 ng·h/mL, the AUCt worked out at 857 ng·h/mL, the Cmax is reported as 195 ng/mL and the “RAUCinf = metabolite-to-omeprazole AUCinf ratio” value is listed as 0.61. For the same compound, in data set [3] (Study Day 1, omeprazole 40 mg), the “RAUCt = metabolite-to-omeprazole AUCt ratio” value is 0.65 and the Tmax is on record as 2.0 h. The t1/2 in data set [3] (setting [12]) is recorded as 1.88 h. In data set [3] (setting [13]), the AUCinf amounted to 664 ng·h/mL, the AUCt was determined as 643 ng·h/mL, the Cmax was 134 ng/mL and the “RAUCinf = metabolite-to-omeprazole AUCinf ratio” value is 0.20. Also, in data set [3] (setting [13]), the “RAUCt = metabolite-to-omeprazole AUCt ratio” value turned out to be 0.20 and the Tmax is 3.0 h. For the same compound, the t1/2 in data set [3] (Study Day 11, omeprazole 40 mg + elagolix 300 mg BID, harmonic mean) amounted to 1.97 h. In addition, the “decrease in AUCinf in all genotype subgroups” value in data set [3] (all CYP2C19 genotype subgroups, elagolix co-administration) is 20-30%. In data set [3] (elagolix 300 mg BID dosing), the “decrease in AUCinf” value is approximately 25%, the “decrease in Cmax” value is reported as “approximately 30%” and the “decrease in M:P AUCinf ratio” value came out at 60%.

`COc1ccc2[nH]c([S+]([O-])Cc3ncc(C)c(OC)c3C)nc2c1` (centres unmarked) [omeprazole, 5-methoxy-2-[[(4-methoxy3,5-dimethyl-2-pyridinyl)methyl]sulfinyl]-1H-benzimidazole, reference compound]: the Tmax in data set [3] (Study Day 1, omeprazole 40 mg) is 2.0 h; in data set [3] (setting [13]) it was 2.0 h. For the same compound, in data set [3] (female, human, in vivo), the t1/2 was determined as 1.57 h. The “increase in AUCinf” value in data set [3] (female, human, in vivo, 300 mg) was determined as 1.8 fold. For the same compound, the “increase in Cmax” value in data set [3] (female, human, in vivo, 300 mg) stood at 1.9 fold. Besides, in data set [3] (human, in vivo), the “Cmax and AUCinf values upon co-administration with elagolix, in words” value is “increased”. In addition, the “Effect on Plasma Exposure of Concomitant Drug (direction of change in AUC)” value in data set [4] and in data set [5] was “↑ omeprazole” each time.

Take `CC(NC(C)(C)C)C(=O)c1cccc(Cl)c1.Cl` (racemic) [bupropion, (±)-1-(3-chlorophenyl)-2-[(1,1-dimethylethyl)amino]-1-propanone hydrochloride, reference compound]: the “changes in exposures when co-administered with elagolix, in words” value in data set [2] (elagolix 300 mg twice daily) is on record as “No clinically significant changes”. Moreover, the “Cmax upon co-administration with elagolix, in words” value in data set [1] is recorded as “increased”. Moreover, the “increase in Cmax upon co-administration with elagolix” value in data set [1] (elagolix 300 mg BID) is on record as 25%. Besides, in data set [1] (female, human, in vivo, 150 mg), the AUC(0-inf) turned out to be 1130 ng·h/mL, the AUC(0-t) turned out to be 1090 ng·h/mL, the Cmax came out at 89.5 ng/mL and the Tmax was 4 h.

Turning to `C#CC1(O)CC[C@H]2[C@@H]3CCC4=CC(=O)CC[C@@H]4[C@H]3CC[C@@]21CC` (some centres unmarked) [Norgestrel], in data set [2] (setting [11]), the “Ratio (90% CI) AUC, co-administration” value was 0.92 and the “Ratio (90% CI) Cmax, co-administration” value is given as 0.89.
